Laboratory results taken from patent publication US8193234B2, “Compounds, compositions and methods of using same for modulating uric acid levels” (Ardea Biosciences, Inc., priority 2008, dated 2012).
Read-outs that look alike come from different tables or passages of the source. Values belong to the compound of their own block, whether it stands above or below them.

Assays:
[1] = target: T1, hURAT1 Transporter (Homo sapiens, UniProt Q96S37); assay: Uric Acid Uptake Assay (14C-uric acid uptake in HEK293/urat1 cells); assay type: cell-based; details: 40 μM C14 uric acid, 10 minutes at room temperature
T1 construct: Full-length human URAT1 gene (SLC22A12) was subcloned from plasmid pCMV6-XL5 (Origene)
T1 sequence (Q96S37 1-553): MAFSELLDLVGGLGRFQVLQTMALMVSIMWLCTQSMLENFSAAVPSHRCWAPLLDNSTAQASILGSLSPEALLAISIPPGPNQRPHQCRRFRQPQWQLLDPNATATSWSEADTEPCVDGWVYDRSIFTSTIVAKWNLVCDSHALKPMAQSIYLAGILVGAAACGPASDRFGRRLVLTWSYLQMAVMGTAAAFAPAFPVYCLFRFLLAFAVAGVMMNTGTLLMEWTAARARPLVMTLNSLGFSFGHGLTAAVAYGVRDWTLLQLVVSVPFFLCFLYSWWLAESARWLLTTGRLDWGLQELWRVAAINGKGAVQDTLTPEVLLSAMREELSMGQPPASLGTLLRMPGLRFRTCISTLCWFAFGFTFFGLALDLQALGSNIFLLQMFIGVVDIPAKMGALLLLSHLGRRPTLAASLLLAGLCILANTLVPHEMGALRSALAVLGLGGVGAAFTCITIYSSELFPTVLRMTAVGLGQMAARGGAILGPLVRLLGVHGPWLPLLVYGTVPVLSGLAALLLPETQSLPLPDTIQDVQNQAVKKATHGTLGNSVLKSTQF
Text: Creation of Stable Cell Lines Expressing hURAT1 Transporter: Full-length human URAT1 gene (SLC22A12) was subcloned from plasmid pCMV6-XL5 (Origene) into eukaryotic expression plasmid pCMV6/Neo (Origene) using Not I restriction sites. Gene sequencing confirmed the sequence of hURAT1 as outlined in Genbank (Accession #NM_144585.2). HEK293 human embryonic kidney cells (ATCC #CRL-1573) were propagated in EMEM tissue culture medium as described by ATCC in an atmosphere of 5% CO2 and 95% air. Transfections of HEK293 cells with the pCMV6/Neo/URAT1 construct were performed using L2000 transfection reagent (Invitrogen) as described by the manufacturer. After 24 h the transfected cells were split into 10 cm tissue culture plates and grown for 1 day after which the medium was replaced with fresh growth medium containing G418 (Gibco) at 0.5 mg/ml final concentration. Drug-resistant colonies were selected after approximately 8 days and then tested for ^14C-uric acid transport activity. The HEK293/urat1 cells are plated on Poly-D-Lysine Coated 96-well Plates at a density of 75,000 cells per well.
Cells were grown overnight (20-26 hours) at 37° C. in an incubator. Plates were allowed to come to room temperature and media was washed out with one wash of 250 μl of Wash Buffer (125 mM Na Gluconate, 10 mM Hepes ph 7.3). Compound or vehicle is added in assay buffer with C14 Uric Acid for a final concentration of 40 μM Uric Acid with a specific activity of 54 mCi/mmol. Assay Buffer is 125 mM Sodium Gluconate, 4.8 mM Potassium Gluconate, 1.2 mM Potassium phosphate, monobasic, 1.2 mM magnesium sulfate, 1.3 mM Ca Gluconate, 5.6 mM Glucose, 25 mM HEPES, pH 7.3. Plates were incubated at room temperature for 10 minutes then washed 3 times with 50 μl Wash Buffer and 3 times with 250 μl Wash Buffer. Microscint 20 Scintillation Fluid was added and plates were incubated overnight at 45° C. to equilibrate. Plates are then read on the TopCount Plate Reader and an EC50 value generated. (See Enomoto et al, Nature, 2002, 417, 447-451 and Anzai et al, J. Biol. Chem., 2004, 279, 45942-45950).
Compounds prepared as described herein, were examined according to the procedure described above and EC50 values generated. […] (N/A means data not available).

[2] = background statement, in certain instances; cited from earlier work
[3] = PO Dosing in Rats: plasma profile; assay type: in vivo, Male Sprague-Dawley Rats; details: for Cmax / Tmax / half-life / AUC(0-t): Sprague-Dawley, rat; for Cmax / Tmax / half-life / Clast: analyte = dosed compound itself in plasma; for half-life: read-out: t½ (converted); for AUC t = 0_6, share in brackets / AUC t = 12_24, share in brackets / AUC t = _12, share in brackets: share of AUC 0_24; for AUC(0-t): male, plasma, po, 3 mg/kg
Protocol: (§1) Compounds prepared as described in examples 1, 3, 7, 8, and 9 are administered PO to Male Sprague-Dawley Rats (250 grams; 3 animals per test group). The test compounds are dissolved in aqueous sodium hydroxide solution (0.2N), brought up to volume with phosphate buffered saline to a concentration of 0.6 mg/mL, and PO administered to the animals at a concentration of 3 mg/kg (5 mL/kg). Plasma samples are removed at 0.25, 0.5, 1, 3, 6, 12 and 24 hr after initial dose and analyzed for presence of compound and possible metabolite. Urine samples are also collected and analyzed for parent compound and/or metabolite.
(§2) Note that in some instances, 2-(5-Bromo-1-(4-cyanonaphthalen-1-yl)-1H-imidazol-2-ylthio)acetic acid (eg 1) is a possible in vivo metabolite of the compounds described in examples 2-9.

[4] = PO Dosing in Rats: urinary excretion profile; assay type: in vivo, Male Sprague-Dawley Rats; details: analyte = dosed compound itself in urine, PO 3 mg/kg, male rats
Protocol: as §1, §2

[5] = footnote *: plasma, not urinary, distribution, analyte = dosed compound, PO 3 mg/kg, male rats
[6] = analyte = dosed compound itself
[7] = analyte = dosed compound itself, PO 3 mg/kg, male rats, read-out: AUC t = 0_6
[8] = analyte = dosed compound itself, PO 3 mg/kg, male rats, read-out: AUC t = 0_24
[9] = analyte = dosed compound itself, PO 3 mg/kg, male rats, read-out: AUC t = 12_24
[10] = analyte = dosed compound itself, PO 3 mg/kg, male rats, read-out: AUC t = _12

BA ([3]; analyte = dosed compound itself, PO 3 mg/kg, male rats): 30%
Plasma Distribution (%) 0-6 h [3, 5]: 85* %
Plasma Distribution (%) 6-12 h [3, 5]: 11* %
Plasma Distribution (%) 12-24 h [3, 5]: 4* %
Total Urinary Excretion % of dose [4]: 4.2 % of dose
EC50 [1]: 1 to 1000 nM
SMILES: N#Cc1ccc(-n2c(Br)cnc2SCC(=O)O)c2ccccc12 [Example 1, 2-(5-Bromo-1-(4-cyanonaphthalen-1-yl)-1H-imidazol-2-ylthio)acetic acid]

EC50 [1]: 1 to 1000 nM
SMILES: CCOC(=O)CNC(=O)CSc1ncc(Br)n1-c1ccc(C#N)c2ccccc12 [Example 2, Ethyl 2-(2-(5-bromo-1-(4-cyanonaphthalen-1-yl)-1H-imidazol-2-ylthio)acetamido)acetate]

Cmax ([3]; PO 3 mg/kg, male rats): 56.6 ng/mL
Tmax ([3]; PO 3 mg/kg, male rats): 0.833 h
half-life ([3]; PO 3 mg/kg, male rats): 3.49 h
Clast ([3]; PO 3 mg/kg, male rats): 0.518 ng/mL
AUC t = 0_6, share in brackets [3, 6]: (58%)
AUC t = 12_24, share in brackets [3, 6]: (10%)
AUC t = _12, share in brackets [3, 6]: (32%)
AUC(0-t) [3, 7]: 145 ng·h/mL
AUC(0-t) [3, 8]: 251 ng·h/mL
AUC(0-t) [3, 9]: 25.6 ng·h/mL
AUC(0-t) [3, 10]: 79.8 ng·h/mL
Total Urinary Excretion % of dose [4]: 7 % of dose
Urinary Distribution (%) 0-6 h [4]: 74%
Urinary Distribution (%) 6-12 h [4]: 20%
Urinary Distribution (%) 12-24 h [4]: 7%
EC50 [1]: 1000 to 30000 nM
SMILES: N#Cc1ccc(-n2c(Br)cnc2SCC(=O)NCC(=O)O)c2ccccc12 [Example 3, 2-(2-(5-Bromo-1-(4-cyanonaphthalen-1-yl)-1H-imidazol-2-ylthio)acetamido)acetic acid]

Total Urinary Excretion % of dose [4]: 26 % of dose
Urinary Distribution (%) 0-6 h [4]: 63%
Urinary Distribution (%) 6-12 h [4]: 30%
Urinary Distribution (%) 12-24 h [4]: 7%
EC50 [1]: 1000 to 30000 nM
SMILES: N#Cc1ccc(-n2c(Br)cnc2SCC(=O)NCCC(=O)O)c2ccccc12 [Example 7, 3-(2-(5-bromo-1-(4-cyanonaphthalen-1-yl)-1H-imidazol-2-ylthio)acetamido)propanoic acid]

Cmax ([3]; PO 3 mg/kg, male rats): 110 ng/mL
Tmax ([3]; PO 3 mg/kg, male rats): 1 h
half-life ([3]; PO 3 mg/kg, male rats): 2.99 h
Clast ([3]; PO 3 mg/kg, male rats): 0.371 ng/mL
AUC t = 0_6, share in brackets [3, 6]: (69%)
AUC t = 12_24, share in brackets [3, 6]: (13%)
AUC t = _12, share in brackets [3, 6]: (17%)
AUC(0-t) [3, 7]: 339 ng·h/mL
AUC(0-t) [3, 8]: 488 ng·h/mL
AUC(0-t) [3, 9]: 65.2 ng·h/mL
AUC(0-t) [3, 10]: 83.9 ng·h/mL
Total Urinary Excretion % of dose [4]: 8 % of dose
Urinary Distribution (%) 0-6 h [4]: 63%
Urinary Distribution (%) 6-12 h [4]: 32%
Urinary Distribution (%) 12-24 h [4]: 5%
EC50 [1]: > 30000 nM
SMILES: C[C@H](NC(=O)CSc1ncc(Br)n1-c1ccc(C#N)c2ccccc12)C(=O)O [Example 8, (2S)-2-(2-(5-bromo-1-(4-cyanonaphthalen-1-yl)-1H-imidazol-2-ylthio)acetamido)propanoic acid]

Further lines, the compound ahead of its results:

SMILES: Cc1cnc(SCC(=O)O)n1-c1ccc(N(C)C)c2c1CCCC2
EC50 [1]: 1000 to 30000 nM

SMILES: Oc1ncnc2[nH]ncc12 [Allopurinol, allopurinol]
incidence of side effects, of all individuals treated with the drug [2]: 20%

SMILES: CCOC(=O)CCNC(=O)CSc1ncc(Br)n1-c1ccc(C#N)c2ccccc12 [Example 4, Ethyl 3-(2-(5-bromo-1-(4-cyanonaphthalen-1-yl)-1H-imidazol-2-ylthio)acetamido)propanoate]
EC50 [1]: 1 to 1000 nM

SMILES: CCOC(=O)[C@H](C)NC(=O)CSc1ncc(Br)n1-c1ccc(C#N)c2ccccc12 [Example 5, (2S)-Ethyl 2-(2-(5-bromo-1-(4-cyanonaphthalen-1-yl)-1H-imidazol-2-ylthio)acetamido)propanoate]
EC50 [1]: 1 to 1000 nM

SMILES: CCOC(=O)[C@@H](NC(=O)CSc1ncc(Br)n1-c1ccc(C#N)c2ccccc12)C(C)C [Example 6, (2S)-Ethyl 2-(2-(5-bromo-1-(4-cyanonaphthalen-1-yl)-1H-imidazol-2-ylthio)acetamido)-3-methylbutanoate]
EC50 [1]: 1 to 1000 nM

SMILES: CC(C)[C@H](NC(=O)CSc1ncc(Br)n1-c1ccc(C#N)c2ccccc12)C(=O)O [Example 9, (2S)-2-(2-(5-bromo-1-(4-cyanonaphthalen-1-yl)-1H-imidazol-2-ylthio)acetamido)-3-methylbutanoic acid]
Cmax ([3]; PO 3 mg/kg, male rats): 25.8 ng/mL
Tmax ([3]; PO 3 mg/kg, male rats): 2.67 h
half-life ([3]; PO 3 mg/kg, male rats): 2.69 h
Clast ([3]; PO 3 mg/kg, male rats): 4.69 ng/mL
AUC t = 0_6, share in brackets [3, 6]: (49%)
AUC t = 12_24, share in brackets [3, 6]: (15%)
AUC t = _12, share in brackets [3, 6]: (36%)
AUC(0-t) [3, 7]: 91.5 ng·h/mL
AUC(0-t) [3, 8]: 187 ng·h/mL
AUC(0-t) [3, 9]: 28.2 ng·h/mL
AUC(0-t) [3, 10]: 67.7 ng·h/mL
Total Urinary Excretion % of dose [4]: 1 % of dose
Urinary Distribution (%) 0-6 h [4]: 66%
Urinary Distribution (%) 6-12 h [4]: 26%
Urinary Distribution (%) 12-24 h [4]: 9%
EC50 [1]: 1000 to 30000 nM

SMILES: N#Cc1ccc(-n2c(Br)cnc2SC(F)(F)C(=O)O)c2ccccc12 [Example 10, 2-(5-Bromo-1-(4-cyanonaphthalen-1-yl)-1H-imidazol-2-ylthio)-2,2-difluoroacetic acid]
EC50 [1]: 1 to 1000 nM

SMILES: CCCN(CCC)S(=O)(=O)c1ccc(C(=O)O)cc1 [probenecid]
individuals treated who fail to achieve reduction of serum uric acid levels<6 mg/dL [2]: 25-50%
individuals who develop intolerance [2]: one-third
